{"source": "paper PMC10287695", "about": "“Non-covalent inhibitors of thioredoxin glutathione reductase with schistosomicidal activity in vivo” (Nature Communications, 2023)", "key": {"TGR": {"target": "T1, TGR (Schistosoma mansoni, UniProt Q962Y6)", "T1 construct": "made in house", "T1 sequence (Q962Y6 1-598)": "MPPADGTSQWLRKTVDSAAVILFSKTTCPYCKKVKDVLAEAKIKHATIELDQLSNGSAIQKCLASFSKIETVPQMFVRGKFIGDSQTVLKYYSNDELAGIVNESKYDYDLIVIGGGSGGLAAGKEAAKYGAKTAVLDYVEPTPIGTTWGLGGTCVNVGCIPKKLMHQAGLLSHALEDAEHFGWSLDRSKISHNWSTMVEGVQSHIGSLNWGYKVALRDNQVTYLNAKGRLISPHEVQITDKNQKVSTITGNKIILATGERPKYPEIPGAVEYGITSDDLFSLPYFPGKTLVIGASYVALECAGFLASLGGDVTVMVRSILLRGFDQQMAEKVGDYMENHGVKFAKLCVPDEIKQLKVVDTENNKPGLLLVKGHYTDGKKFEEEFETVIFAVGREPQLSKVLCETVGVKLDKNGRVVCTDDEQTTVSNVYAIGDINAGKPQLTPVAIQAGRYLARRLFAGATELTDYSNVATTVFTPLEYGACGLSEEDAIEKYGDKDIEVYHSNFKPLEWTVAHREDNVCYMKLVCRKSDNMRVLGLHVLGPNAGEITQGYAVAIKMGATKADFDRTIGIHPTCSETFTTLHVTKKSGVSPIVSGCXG", "test": "NADPH dependence of inhibition", "type": "biochemical", "set-up": "unit not given here", "details": "panel b, replicates; for Rate, no NADPH: preincubation no NADPH; for Rate, with NADPH: preincubation with NADPH", "experimental": "TGR was incubated at room temperature with inhibitor in the presence or absence of 100 µM NADPH for 15 min. DTNB (3 mM) and NADPH (100 µM) were added, and the reaction was monitored at A412 for 5 min to determine reaction rate. The assay was done in triplicate."}, "S. mansoni NTS": {"system": "S. mansoni NTS", "test": "Phenotypic assessment of PZQ activity on NTS", "type": "cell-based", "details": "for % Effect, single replicates I, II, III / % Effect / NTS phenotypic score, Mean / IC50: 24 hour exposure; for % Effect: from mean score, 100 - Average (Test) x 100 / Average (Control); for NTS phenotypic score, Mean: score 3 (motile) to 0 (dead); for IC50: NTS phenotypic scoring", "experimental": "About 200 NTS incubated at 37 °C in a 5% CO2 incubator overnight were exposed to different concentrations of PZQ (1, 5, 10, 20, 30, 40 and 50 µM) and control without treatment for 24 h in triplicate. Worm images were acquired using Keyence BZ-X800 microscope and PZQ activity evaluated phenotypically. NTS viability was assessed by scoring worms based on morphological changes and motility. Viability scores of 3 = motile, no changes to morphology and transparency, 2 = reduced motility and/or some damage to tegument as well as reduced transparency and increased granularity, 1 = severe reduction of motility and/or damage to tegument with high opacity and high granularity, and 0 = dead."}, "adult worms in mice": {"system": "adult worms in mice", "set-up": "method as in PMID 15013742", "details": "cited from earlier work"}, "[1]": {"details": "human, in vivo; cited from earlier work"}}, "note": "Several values for one entry are separate records, joined by “and”; a condition that tells them apart may be missing. Equal values may be shown once. Read-outs that look alike come from different tables or passages of the source.", "data": [{"smiles": "C#CCN(Cc1nc(-c2ccccc2)oc1C)[C@@H]1C[C@@H]2C[C@H]([C@H]1C)C2(C)C", "note": "[Compound 6]", "values": [{"measurement": "Rate, no NADPH", "setting": "TGR", "result": "0.02684 and 0.02786 and 0.03567"}, {"measurement": "Rate, with NADPH", "setting": "TGR", "result": "0.00166 and 0.0006764 and 0.001495"}]}, {"smiles": "Cc1oc(C2CCCCC2)nc1C(=O)N[C@@H]1C[C@@H]2C[C@H]([C@H]1C)C2(C)C", "note": "[Compound 7]", "values": [{"measurement": "Rate, no NADPH", "setting": "TGR", "result": "0.05983 and 0.05966 and 0.05987"}, {"measurement": "Rate, with NADPH", "setting": "TGR", "result": "0.003086 and 0.003742 and 0.002131"}]}, {"smiles": "C[C@@H]1[C@H]2C[C@@H](C[C@H]1NCc1nc3ccccc3n1C1CCCCCC1)C2(C)C", "note": "[Compound 8]", "values": [{"measurement": "Rate, no NADPH", "setting": "TGR", "result": "0.045 and 0.0455"}, {"measurement": "Rate, with NADPH", "setting": "TGR", "result": "0.006 and 0.0015 and 0.0024"}]}, {"smiles": "O=C(C1CCCCC1)N1CC(=O)N2CCc3ccccc3C2C1", "note": "(stereo not drawn) [PZQ, praziquantel]", "values": [{"measurement": "% Effect, single replicates I, II, III", "setting": "S. mansoni NTS; 10 µM", "result": "9.401% and 12.151% and 16.3217%"}, {"measurement": "% Effect", "setting": "S. mansoni NTS; 10 µM", "result": 12.6338, "unit": "%"}, {"measurement": "NTS phenotypic score, Mean", "setting": "S. mansoni NTS; 10 µM, mean of 3 replicates", "result": 2.613}, {"measurement": "% Effect, single replicates I, II, III", "setting": "S. mansoni NTS; 20 µM", "result": "15.8245% and 13.8003% and 19.4239%"}, {"measurement": "% Effect", "setting": "S. mansoni NTS; 20 µM", "result": 16.3511, "unit": "%"}, {"measurement": "NTS phenotypic score, Mean", "setting": "S. mansoni NTS; 20 µM, mean of 3 replicates", "result": 2.502}, {"measurement": "% Effect, single replicates I, II, III", "setting": "S. mansoni NTS; 30 µM", "result": "25.0655% and 24.6184% and 29.7619%"}, {"measurement": "% Effect", "setting": "S. mansoni NTS; 30 µM", "result": 26.486, "unit": "%"}, {"measurement": "NTS phenotypic score, Mean", "setting": "S. mansoni NTS; 30 µM, mean of 3 replicates", "result": 2.199}, {"measurement": "% Effect, single replicates I, II, III", "setting": "S. mansoni NTS; 40 µM", "result": "41.1572% and 48.5123% and 41.922%"}, {"measurement": "% Effect", "setting": "S. mansoni NTS; 40 µM", "result": 43.8717, "unit": "%"}, {"measurement": "NTS phenotypic score, Mean", "setting": "S. mansoni NTS; 40 µM, mean of 3 replicates", "result": 1.679}, {"measurement": "% Effect, single replicates I, II, III", "setting": "S. mansoni NTS; 50 µM", "result": "60.2247% and 58.8296% and 61.8051%"}, {"measurement": "% Effect", "setting": "S. mansoni NTS; 50 µM", "result": 60.2866, "unit": "%"}, {"measurement": "NTS phenotypic score, Mean", "setting": "S. mansoni NTS; 50 µM, mean of 3 replicates", "result": 1.188}, {"measurement": "LD50 for NTS, phenotypic analysis", "setting": "S. mansoni NTS; 24 h exposure", "result": "42.9 ± 0.83", "unit": "µM"}, {"measurement": "IC50", "setting": "S. mansoni NTS; FORECAST interpolation, read-out: IC50, single replicates I, II, III", "result": "42.6 µM and 42.3 µM"}, {"measurement": "IC50", "setting": "S. mansoni NTS; Schistosoma mansoni, 24 h, FORECAST interpolation, read-out: IC50, single replicates I, II, III", "result": 43.9, "unit": "µM"}, {"measurement": "IC50", "setting": "S. mansoni NTS; Schistosoma mansoni, 24 h, mean of 3 replicates, read-out: IC50, Mean", "result": 42.9, "unit": "µM"}, {"measurement": "ED50 against adult worms in mice", "setting": "adult worms in mice", "result": 80, "unit": "mg/kg"}, {"measurement": "half-life", "setting": "[1]", "result": 1.6, "unit": "h"}]}]}
